Test results: patent publication US9023821B2, “Use of MicroRNA for treating diseases associated with a dysfunction of the cilia in multiciliated epithelial cells” (Centre National de la Recherche Scientifique, priority 2009, dated 2015)

What was measured:
[1] = tested on: human airway epithelial cells (HAECs); experiment: Agilent miRNA chips, miRNA expression at four stages of differentiation of HAECs; details: for Modulation (ratio of the level of intensity of expression in log2 in two stages of differentiation) measured with the Agilent chips, D7 − D0 / Modulation (ratio of the level of intensity of expression in log2 in two stages of differentiation) measured with the Agilent chips, FC − D7 / Modulation (ratio of the level of intensity of expression in log2 in two stages of differentiation) measured with the Agilent chips, WD − D0 / Modulation (ratio of the level of intensity of expression in log2 in two stages of differentiation) measured with the Agilent chips, WD − FC / Level of intensity of expression in log2 measured with the Agilent chips, D0 / Level of intensity of expression in log2 measured with the Agilent chips, D7 / Level of intensity of expression in log2 measured with the Agilent chips, FC / Level of intensity of expression in log2 measured with the Agilent chips, WD: Table VI; for Modulation (ratio of the level of intensity of expression in log2 at two stages of differentiation), FC − D7 / Modulation (ratio of the level of intensity of expression in log2 at two stages of differentiation), WD − FC: Agilent miRNA chips, Table V; for Level of intensity of expression in log2 measured with the Agilent chips, D0: stage D0; for Level of intensity of expression in log2 measured with the Agilent chips, D7: stage D7; for Level of intensity of expression in log2 measured with the Agilent chips, FC: stage FC; for Level of intensity of expression in log2 measured with the Agilent chips, WD: stage WD
Excerpt: In parallel with the high-throughput sequencing of the microRNAs, the repertoire of expression of the microRNAs (microRNAome) is investigated using the technology of Agilent® microRNA chips. For this, RNA samples from the same patients as before were used, labeled and hybridized on Agilent® miRNA chips (Human miRNA Microarray v2, containing 866 human miRNAs and 89 human viral miRNAs, i.e. all the human miRNAs contained and referenced in Sanger miRBase v.12.0, Agilent Technologies, France) using the “miRNA labeling and hybridization” kit, following the supplier's instructions (Agilent Technologies).
The inventors then used the Agilent miRNA chips to investigate the repertoire of expression of the miRNAs of the human airway epithelium and compare the results obtained in high-throughput sequencing with those obtained with Agilent® commercial miRNA chips.

[2] = tested on: basal cells and pyramidal cells of the airway epithelium; experiment: miRNA expression in sorted basal cells versus pyramidal cells (ciliated + secretory), HTS and Agilent chips; parameters: species or system human; details: for Modulation of expression of the miRNAs in pyramidal cells (323(−)) relative to basal cells 323(+): HTS and Agilent chips; for Intensity of the level of expression in log2 in pyramidal cells (323(−)): pyramidal cells (ciliated + secretory)
Experimental: After dissociation of the stroma of nasal polyps, the epithelial cells (about 20.10^6) are incubated in PBS-BSA-EDTA for 30 min and then incubated with labeled antibody CD151-PE and anti-TF (tissue factor)-FITC for 20 min, 4° C. (see Hajj, R. et al., Stem Cells 25, 139-148 (2007)). After washing twice, the cells are taken up in PBS-EDTA and incubated with DAPI for labeling the cells whose integrity has been altered.
Cell sorting was carried out on the FACSAria sorter (BD Biosciences) equipped with 3 lasers, blue, red and violet. Dead cells, aggregates and double cells were excluded. The doubly positive population of basal cells (CD151+/FT+) and the negative population of cylindrical cells (containing ciliated cells and mucus-secreting cells) (CD151−/FT−) were selected and sorted at a rate of 5000 events/s ([…]). The purity and identity of the sorted cells were then verified by cytometry and immunocytochemistry.
Like the native airway epithelium, the model of differentiation in vitro used in these tests consists of basal cells, ciliated cells and mucus-secreting cells. In order to identify the repertoires of the miRNAs specific to each of the cellular types, the inventors used cell sorting by flow cytometry by means of specific markers (Hajj, R. et al. 2007). Using this technique, adult airway progenitor cells (corresponding a priori to basal cells) were isolated, selected and sorted (such cells appear doubly positive for tetraspanin CD151 and for the tissue factor) from the pyramidal cells (i.e. ciliated cells and mucus-secreting cells) which appear negative for these same markers. These were purified from polyps or from nasal conchae obtained from 3 separate donors.
After extracting the total RNAs, the expression profiles of the miRNAs were established by means of Agilent® commercial chips or by high-throughput sequencing (HTS). […] For the first time, the inventors thus attribute a repertoire of expression of the miRNAs specifically to separate cellular types of the airway epithelium during differentiation.

[3] = tested on: human airway epithelial cells (HAECs); experiment: High-throughput sequencing (HTS) of miRNAs at four stages of differentiation of HAECs; details: for Modulation (ratio of the level of intensity of expression in log2 in two stages of differentiation) measured by high-throughput sequencing, D7 − D0 / Modulation (ratio of the level of intensity of expression in log2 in two stages of differentiation) measured by high-throughput sequencing, FC − D7 / Modulation (ratio of the level of intensity of expression in log2 in two stages of differentiation) measured by high-throughput sequencing, WD − D0 / Modulation (ratio of the level of intensity of expression in log2 in two stages of differentiation) measured by high-throughput sequencing, WD − FC / Level of intensity of expression in log2 measured by high-throughput sequencing, D0 / Level of intensity of expression in log2 measured by high-throughput sequencing, D7 / Level of intensity of expression in log2 measured by high-throughput sequencing, FC / Level of intensity of expression in log2 measured by high-throughput sequencing, WD: Table VI; for Level of intensity of expression in log2 At the differentiated stage (WD) measured in HTS: healthy human airway epithelial tissue; for Level of intensity of expression in log2 measured by high-throughput sequencing, D0: stage D0; for Level of intensity of expression in log2 measured by high-throughput sequencing, D7: stage D7; for Level of intensity of expression in log2 measured by high-throughput sequencing, FC: stage FC; for Level of intensity of expression in log2 At the differentiated stage (WD) measured in HTS / Level of intensity of expression in log2 measured by high-throughput sequencing, WD: stage WD
Excerpt: The total RNAs were extracted from HAECs cultivated at the air-liquid interface at four stages of differentiation: ALI-D0 (0 day), ALI-D7 (7 days), ALI-FC (during appearance of the first cilia at about 14 days) and ALI-WD (wholly differentiated at about 21 days). The cells are lysed in reagent with Trizol® (Invitrogen). The total RNAs containing small RNAs and microRNAs are purified on Qiagen RNEasy columns (Qiagen) according to the supplier's instructions.
The total RNAs containing small RNAs and microRNAs are isolated as before. The procedure is based on the Applied Biosystems Ligase-Enhanced Genome Detection technology (LEGenD™); the SOLiD™ Small RNA Expression kit (Applied Biosystems, France) was used. With this method it is possible to convert the small RNAs of a sample into a library of double-stranded DNA; it was developed by Applied Biosystems SOLiD™ System for a new generation of high-throughput sequencing.
The high-throughput sequencing of the microRNAs was carried out according to the supplier's recommendations. Briefly, the total RNAs containing the small RNAs are hybridized (65° C., 10 min, then at 16° C., 5 min) and ligated (16° C., 2-16 h in a thermocycler) with the Adaptor Mix A for producing a matrix for sequencing the 5′ end of the small RNAs, or with the Adaptor Mix B for sequencing the 3′ end. The samples are then reverse-transcribed (42° C., 30 min) to synthesize the complementary DNA (cDNA). The library of small RNAs is amplified by PCR and after migration on polyacrylamide gel the amplified small RNAs are cut out and extracted from the gel according to their size (length of about 105-150 bases, according to the supplier's instructions), eluted and resuspended in nuclease-free water. The concentration of nucleic acids is then measured and normalized before proceeding with preparation of the samples for sequencing.
For each microRNA sequenced, the number of sequences of the 5p strand and of the 3p strand of the microRNA was normalized to 10^6 sequences and converted to percentage abundance of expression for each of the microRNAs. The data were then normalized according to a linear model and an empirical Bayesian method using software R. For subsequent analyses, only the microRNAs were retained for which the percentage expression (or abundance) is greater than 1% of the total of the microRNAs in at least one culture condition, with a |Log2 Ratio| below 0.5 and an adjusted P-value below 0.05.

Substance | Modulation (ratio of the level of intensity of expression in log2 in two stages of differentiation) measured with the Agilent chips, D7 − D0 [1] [log2] | Modulation (ratio of the level of intensity of expression in log2 at two stages of differentiation), FC − D7 [1] [log2] | Modulation (ratio of the level of intensity of expression in log2 in two stages of differentiation) measured with the Agilent chips, FC − D7 [1] [log2] | Modulation (ratio of the level of intensity of expression in log2 in two stages of differentiation) measured with the Agilent chips, WD − D0 [1] [log2] | Modulation (ratio of the level of intensity of expression in log2 at two stages of differentiation), WD − FC [1] [log2] | Modulation (ratio of the level of intensity of expression in log2 in two stages of differentiation) measured with the Agilent chips, WD − FC [1] [log2] | Level of intensity of expression in log2 measured with the Agilent chips, D0 [1] [log2] | Level of intensity of expression in log2 measured with the Agilent chips, D7 [1] [log2] | Level of intensity of expression in log2 measured with the Agilent chips, FC [1] [log2] | Level of intensity of expression in log2 measured with the Agilent chips, WD [1] [log2] | Modulation of expression of the miRNAs in pyramidal cells (323(−)) relative to basal cells 323(+) [2] | Intensity of the level of expression in log2 in basal cells (323(+)) [2] [log2] | Intensity of the level of expression in log2 in pyramidal cells (323(−)) [2] [log2] | Modulation (ratio of the level of intensity of expression in log2 in two stages of differentiation) measured by high-throughput sequencing, D7 − D0 [3] [log2] | Modulation (ratio of the level of intensity of expression in log2 in two stages of differentiation) measured by high-throughput sequencing, FC − D7 [3] [log2] | Modulation (ratio of the level of intensity of expression in log2 in two stages of differentiation) measured by high-throughput sequencing, WD − D0 [3] [log2] | Modulation (ratio of the level of intensity of expression in log2 in two stages of differentiation) measured by high-throughput sequencing, WD − FC [3] [log2] | Level of intensity of expression in log2 At the differentiated stage (WD) measured in HTS [3] [log2] | Level of intensity of expression in log2 measured by high-throughput sequencing, D0 [3] [log2] | Level of intensity of expression in log2 measured by high-throughput sequencing, D7 [3] [log2] | also measured
hsa-let-7f: human miRNA, SEQ ID No. 161 (UGAGGUAGUAGAUUGUAUAGUU; expressed or natural sequence; listed as Homo sapiens) | 1.63 | −0.73 | −0.73 | 1.08 | 0.17 | 0.17 | 11.11 | 12.75 | 12.01 | 12.19 | −0.94 | 10.82 | 9.88 | 0.22 | −0.56 | 0.11 | 0.45 | 5.35 | 5.24 | 5.46 | Level of intensity of expression in log2 measured by high-throughput sequencing, FC [3]: 4.90 log2; Level of intensity of expression in log2 measured by high-throughput sequencing, WD [3]: 5.35 log2
hsa-let-7g: human miRNA, SEQ ID No. 162 (UGAGGUAGUAGUUUGUACAGUU; expressed or natural sequence; listed as Homo sapiens) | 1.83 | −0.54 | −0.54 | 1.50 | 0.21 | 0.21 | 9.30 | 11.12 | 10.59 | 10.80 | −0.15 | 8.37 | 8.22 | −0.24 | −0.03 | 0.56 | 0.83 | 12.40 | 11.84 | 11.60 | Level of intensity of expression in log2 measured by high-throughput sequencing, FC [3]: 11.57 log2; Level of intensity of expression in log2 measured by high-throughput sequencing, WD [3]: 12.40 log2
hsa-miR-15a: human miRNA, SEQ ID No. 9 (UAGCAGCACAUAAUGGUUUGUG; expressed or natural sequence; listed as Homo sapiens) | 2.36 | −0.39 | −0.39 | 1.87 | −0.10 | −0.10 | 7.74 | 10.10 | 9.71 | 9.61 | −2.10 | 7.86 | 5.75 | 1.41 | −0.19 | 1.57 | 0.35 | 7.68 | 6.11 | 7.52 | Level of intensity of expression in log2 measured by high-throughput sequencing, FC [3]: 7.33 log2; Level of intensity of expression in log2 measured by high-throughput sequencing, WD [3]: 7.68 log2
